{"source": "patent US20230000903A1", "about": "“METHODS AND SYSTEMS FOR NITRIC OXIDE THERAPY FOR THE TREATMENT OR PREVENTION OF RESPIRATORY INFECTIONS” (KNOW Bio, LLC, priority 2020, published 2023)", "origin": "cited, not measured here", "data": [{"smiles": "[N]=O", "note": "[NO, nitric oxide]", "values": [{"measurement": "radius of action from its site of origin", "setting": "beyond which it is inactivated by binding to thiols or heme of hemoglobin", "value": "approximately 200 microns"}, {"measurement": "half-life in the body", "setting": "in the body", "value": "less than 6 seconds"}, {"measurement": "share of the nitric oxide dose inhaled excreted in the urine as nitrate", "setting": "urine, nitrate as predominant metabolite, inhaled dose", "value": "more than 70%"}]}]}
